{Fethoc} = N-terminal Fethoc cap; [C(1O2)] = modified PNA monomer acting as cytosine, C(pOq) type, 1O2; [A(5)] = modified PNA monomer acting as adenine, A(p) type, p=5; [G(5)] = modified PNA monomer acting as guanine, G(p) type, p=5; {NH2} = C-terminal amide
Key:
AR protein = experiment: AR western blot in MCF7 cells; assay type: cell-based, human; conditions: 10 zM to 30 aM, 48 hours
Experimental: 4 culture dishes for the negative control. 48 hours later, cells were washed 2× with cold PBS, and then subjected to lysis with 200 μL 1× cell lysis buffer (Cat. No. 9803, Cell Signaling Tech) supplemented with 1× protease inhibitors (Cat. No. P8340, Sigma). The lysates were collected in 1.5 mL e-tube. 200 μL of each lysate was mixed with 100 μL 3× sample buffer, and boiled for 5 min. 20 μL of each lysate (4 negative controls and 8 ASO treatment samples) was subjected to electrophoretic separation on a 8% SDS-PAGE gel, and transferred onto a PVDF membrane. The membrane was probed with an anti-AR antibody (Cat. Number 5153, Cell Signaling Tech) and an anti-3-actin antibody (Cat. Number sc4778, Santa Cruz).

AR mRNA = experiment: qPCR by SYBR Green for AR mRNA in MCF7 cells; conditions: 5 hours
Experimental: [ASO Treatment and RNA Extraction] […] (2 culture dishes per concentration) 5 hours later, total RNA was extracted using “MiniBEST Universal RNA Extraction Kit” according to the manufacturer's instructions (Cat. Number 9767, Takara).
[cDNA Synthesis with OligodT]
The PCR reactions were probed by SYBR Green (Takara, Japan).

10-mer complementary DNA = experiment: Tm between PNA derivatives and 10-mer complementary DNA (N- or C-terminal); assay type: binding; conditions: uncorrected
How it was run: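 4 μM 10-mer PNA with 4 μM complementary 10-mer DNA in pH 7.16 buffer (10 mM sodium phosphate, 100 mM NaCl) was heated at 90 °C for a minute, slowly cooled to ambient, then Tm measured by UV absorbance at 260 nm.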

human AR pre-mRNA = experiment: AR nested PCR for exon skipping in MCF7 cells; assay type: cell-based; conditions: 3 hours
Experimental: “AR-ASO 1” was evaluated by AR nested PCR for its ability to induce the skipping of exon 5 of the human AR mRNA in MCF7 cells as follows. [Cell Culture & ASO Treatment] MCF7 cells (Cat. Number: HTB-22, ATCC) were maintained in EMEM medium supplemented with 10% FBS, 1% streptomycin/penicillin, and 0.01 mg/mL bovine insulin under 5% CO2 atmosphere at 37° C. Cells grown in 60 mm culture dish were treated with “AR-ASO 1” for 3 hours at 0 (negative control), 3, 30, 300 or 3,000 aM (i.e., 3 fM). [RNA Extraction] Total RNA was extracted using “Universal RNA Extraction Kit” (Cat. No. 9767, Takara) according to the manufacturer's instructions [cDNA Synthesis by One Step RT-PCR] […] NO: 55); and AR-exon 9_reverse: (5'→3') […] [Nested PCR Amplification] Throughout the amplification process, was used a unique amplification technique (touch up as increasing annealing temperature per cycle) that worked efficiently and specifically over a temperature range, rather than at one specific annealing temperature (i.e., conventional PCR method). […] NO: 57); and AR-exon 7n_reverse: (5'→3') […] […] The bands of target size were collected and analyzed by Sanger Sequencing. […] “AR-ASO 1” was evaluated for its exon skipping ability in MCF7 cells grossly showing the morphology of cumulus shape as described in “AR Example 1”, unless noted otherwise. […]

full-length SCN9A mRNA = experiment: SCN9A qPCR by cDNA synthesis with random hexamers in rat L5 DRG cells; assay type: cell-based; conditions: 24 hours
Experimental: “SCN-ASO 30” was evaluated by SCN9A qPCR for its ability to inhibit the expression of the SCN9A mRNA in rat L5 DRG cells. Total RNA was prepared as described in “SCN9A Example 15”, and subjected to cDNA synthesis using random hexamers.
The cDNA solutions were also subjected to qPCR amplification for the GAPDH mRNA. The Ct values of the SCN9A mRNA were normalized against the Ct values of GAPDH mRNA.

[1] = system: sodium current in rat L5 DRG neuronal cells; experiment: Manual patch clamp sodium current in rat L5 DRG neuronal cells; assay type: cell-based; conditions: rat L5 DRG neuronal cells (L5/L6 ligation), small size, 100 zM, 4 hours
Experimental: “SCN-ASO 30” was evaluated for its ability to inhibit the sodium current in rat L5 DRG neuronal cells stimulated with L5/L6 ligation as provided below.
[Preparation of DRG Neuronal Cells] Male SD rats (6 weeks old) were subjected to tight “L5/L6 ligation”. 7 days later, rats were anesthetized with zoletil/rompun for the extraction of L5 DRG of the ligated side. […]

Nav1.7 protein = experiment: Nav1.7 western blot in rat L5 DRG neuronal cells; assay type: cell-based; conditions: rat DRG neuronal cells (L5/L6 ligation)
Experimental: “SCN-ASO 30” was evaluated for its ability to inhibit the expression of Nav1.7 protein in rat DRG neuronal cells as described below.
[Preparation of DRG Neuronal Cells] Male SD rats (7 weeks old) were subjected to tight “L5/L6 ligation”. 7 days later, 4 rats were anesthetized with zoletil/rompun to sample the L5 DRG of the ligated side. The DRGs were pooled and processed to prepare DRG neuronal cells as described in “SCN9A Example 12”.
[ASO Treatment] DRG neuronal cells were treated with “SCN-ASO 30” at 0 (negative control), 10, 100 or 1,000 zM for 24 hours, and then subjected to lysis for western blot against a Nav1.7 antibody (Cat. No. ab85015, Abcam) probing the C-terminal of the Nav1.7 protein. β-actin was probed for reference.

| Substance | AR band (120K size) intensity by western blot (AR protein) | AR exon levels (SYBR Green), rebound (AR mRNA; 1 aM (1,000 zM)) | decrease of AR exon 4-6 levels (SYBR Green) (AR mRNA; 100 zM) | Tm Value, 10-mer DNA against C-Terminal (10-mer complementary DNA) | Tm Value, 10-mer DNA against N-Terminal (10-mer complementary DNA) | skipping of AR exon 5 by nested PCR (human AR pre-mRNA; MCF7 cells of cumulus shape morphology, 30, 100 or 1,000 aM) | AR exon skipping by nested PCR (human AR pre-mRNA; MCF7 cells, 3, 30, 300 or 3,000 aM) | decrease of full-length SCN9A mRNA expression level (random hexamers, normalized against GAPDH) (full-length SCN9A mRNA) | decrease of sodium current (manual patch clamp, normalized against cell size) [1] | full-length Nav1.7 protein band at 220-240K (Nav1.7 protein; 10 zM, 24 hours) | Nav1.7 expression by western blot (Nav1.7 protein; 100 and 1,000 zM, 24 hour) |
| --- | --- | --- | --- | --- | --- | --- | --- | --- | --- | --- | --- |
| Fethoc-C(1O2)TT-A(5)CC-A(5)GG-C(1O2)AA(5)-G-NH2 (antisense CTTACCAGGCAAG; all peptide nucleic acid (PNA), [C(1O2)] at 1, 10, [A(5)] at 4, 7, 12, 5' {Fethoc}, 3' {NH2}; peptide nucleic acid backbone) [AR-ASO 1] | weaker than the intensity of their neighboring lysates | rebounded close toward the negative control levels | 40-50% | 81.3 °C | 86.1 °C | distinctively predominant | induce the skipping of exon 5, exons 4-5, and exons 4-6 | – | – | – | – |
| Fethoc-AA(5)G-TG(5)T-A(5)CC(1O2)-TA(5)A-A(5)G-NH2 (AAGTGTACCTAAAG; all peptide nucleic acid (PNA), [A(5)] at 2, 7, 11, 13, [G(5)] at 5, [C(1O2)] at 9, 5' {Fethoc}, 3' {NH2}; peptide nucleic acid written N to C) [SCN-ASO 30] | – | – | – | 74.0 °C | 79.0 °C | – | – | 45-75% | ~90% | detected | markedly inhibited |
